Laboratory results published in patent US8653110B2, “Active compound combination comprising azadirachtin and a substituted enaminocarbonyl compound” (Bayer CropScience AG, priority 2010, dated 2014).

Assays:
Format in all cases: in vivo
Cyclocephala immaculata = experiment: Watering test with beetle larvae (Example 2)
Excerpt: Beetle larvae (grubs) are important lawn pests. On the one hand, they feed on grass roots, damaging them directly, on the other hand they are a favoured food for birds which, searching for grubs, destroy the turf. For treatment against grubs, infested lawns are usually watered with insecticidal compositions. This type of treatment is emulated in the laboratory by Example 2.
To prepare a suitable active compound preparation, a commercial formulation of active compound or active compound combination is mixed with water until the desired concentration is reached. Pots with soil substrate were watered with the following active compound preparations: • 1. untreated • 2. compound (I-1) as SL 200, 600 g of active compound/ha • 3. azadirachtin, 60 g of active compound/ha • 4. compound (I-1) as SL 200+azadirachtin, 600+60 g of active compound/ha • 5. positive control: trichlorfon 4529 g of active compound/ha
L3 larvae of Cyclocephala immaculata were placed onto the pots. After 1, 4, 7, 14 days, the survival rate was determined, and this was used to calculate the efficacy of the compositions. 100% means that all grubs were killed, 0% means no activity.

Tetranychus urticae = experiment: Greenhouse red spider mite on roses (Example 7)
Description: Example 7 describes the effect of the combination according to the invention on the greenhouse red spider mite (Tetranychus urticae) on roses. The test was carried out in a greenhouse under GEP according to EPPO guideline PP 1/168(2) with 4 repetitions of in each case 4 plants. At the start of the infection, the plants were treated as follows: • 1. untreated • 2. compound (I-1) as SL 200 (compound according to formula (I-1), 17% strength), 50 g of active compound/ha • 3. azadirachtin 30 g of active compound/ha, NeemAzal® • 4. azadirachtin 5 g of active compound/ha, NeemAzal® • 5. compound (I-1) as SL 200+azadirachtin, 50+30 g of active compound/ha • 6. compound (I-1) as SL 200+azadirachtin, 50+5 g of active compound/ha • 7. positive control imidacloprid 100 g of active compound/ha
The spray solution was prepared by mixing commercial formulations and using water to adjust to the concentration mentioned. The application rate was 1000 l/ha. 2 applications were carried out at intervals of 14 days. The number of spider mites on days 2 to 32 after the first application was scored. What is shown is the effect of the products, which becomes evident in a reduction of the number of spider mites compared to the untreated control.

[1] = tested on: Trialeurodes vaporariorum; experiment: Whiteflies on tomatoes, further test (Example 6)
Description: This example describes a further test with the formulation according to the invention against whiteflies (Trialeurodes vaporariorum) on tomatoes (Lycopersicon esculentum). The test was carried out under GEP according to EPPO guideline PP 1/36(2) with 4 repetitions of in each case 5 plants. At the start of the infection, the plants were treated as follows: • 1. untreated • 2. compound (I-1) as SL 200 (compound according to formula (I-1), 17% strength), 50 g of active compound/ha • 3. azadirachtin 15 g of active compound/ha, NeemAzal® • 4. azadirachtin 5 g of active compound/ha, NeemAzal® 5. compound (I-1) as SL 200+azadirachtin, 50+15 g of active compound/ha • 6. compound (I-1) as SL 200+azadirachtin, 50+5 g of active compound/ha • 7. positive control imidacloprid 100 g of active compound/ha
The spray solution was prepared by mixing commercial formulations and using water to adjust to the concentration mentioned. The application rate was 1000 l/ha. 2 applications were carried out at intervals of 10 days. The number of adult flies and the number of larvae were scored on days 2 to 32 after the first application. What is shown is the effect of the products, which becomes evident in a reduction of the number of insects or larvae compared to the untreated control. Imidacloprid was also tested, as positive control.

Spodoptera frugiperda = experiment: Fall armyworm caterpillars on maize, feeding damage (Example 8); conditions: reduction of feeding damage
[2] = Day 2, (I-1) 50, azadirachtin 30, (I-1)+azadirachtin 50+30, imidacloprid 100 g/ha
[3] = Day 2, azadirachtin 5, (I-1)+azadirachtin 50+5 g/ha
[4] = Day 7, (I-1) 50, azadirachtin 30, (I-1)+azadirachtin 50+30, imidacloprid 100 g/ha
[5] = Day 7, azadirachtin 5, (I-1)+azadirachtin 50+5 g/ha
[6] = Day 14, (I-1) 50, azadirachtin 30, (I-1)+azadirachtin 50+30, imidacloprid 100 g/ha
[7] = Day 14, azadirachtin 5, (I-1)+azadirachtin 50+5 g/ha
[8] = Day 21, (I-1) 50, azadirachtin 30, (I-1)+azadirachtin 50+30, imidacloprid 100 g/ha
[9] = Day 21, azadirachtin 5, (I-1)+azadirachtin 50+5 g/ha
[10] = Days 28-32, (I-1) 50, azadirachtin 30, (I-1)+azadirachtin 50+30, imidacloprid 100 g/ha
[11] = Days 28-32, azadirachtin 5, (I-1)+azadirachtin 50+5 g/ha
[12] = Day 2, (I-1) 50, azadirachtin 15, (I-1)+azadirachtin 50+15, imidacloprid 100 g/ha
[13] = Day 7, (I-1) 50, azadirachtin 15, (I-1)+azadirachtin 50+15, imidacloprid 100 g/ha
[14] = Day 14, (I-1) 50, azadirachtin 15, (I-1)+azadirachtin 50+15, imidacloprid 100 g/ha
[15] = Day 21, (I-1) 50, azadirachtin 15, (I-1)+azadirachtin 50+15, imidacloprid 100 g/ha
[16] = Days 28-32, (I-1) 50, azadirachtin 15, (I-1)+azadirachtin 50+15, imidacloprid 100 g/ha
[17] = Days 35-42, (I-1) 50, azadirachtin 30, (I-1)+azadirachtin 50+30, imidacloprid 100 g/ha

SMILES: C/C=C(\C)C(=O)O[C@H]1C[C@@H](OC(C)=O)[C@@]2(C(=O)OC)CO[C@H]3[C@@H](O)[C@@](C)([C@]45O[C@@]4(C)[C@H]4C[C@@H]5O[C@@H]5OC=C[C@@]54O)[C@H]4[C@]1(CO[C@]4(O)C(=O)OC)[C@@H]32 [azadirachtin]
- Effect on day 1 in % (Cyclocephala immaculata; day 1, L3 larvae, watering, (I-1) 600, azadirachtin 60, (I-1)+azadirachtin 600+60, trichlorfon 4529 g of active compound/ha): 0%
- Effect on day 4 in % (Cyclocephala immaculata; day 4, L3 larvae, watering, (I-1) 600, azadirachtin 60, (I-1)+azadirachtin 600+60, trichlorfon 4529 g of active compound/ha): 0%
- Effect on day 7 in % (Cyclocephala immaculata; day 7, L3 larvae, watering, (I-1) 600, azadirachtin 60, (I-1)+azadirachtin 600+60, trichlorfon 4529 g of active compound/ha): 0%
- Effect on day 14 in % (Cyclocephala immaculata; day 14, L3 larvae, watering, (I-1) 600, azadirachtin 60, (I-1)+azadirachtin 600+60, trichlorfon 4529 g of active compound/ha): 7%
- effect on grubs (Cyclocephala immaculata; entire duration of the test, azadirachtin 60 g of active compound/ha): no effect
- Activity against Tetranychus urticae [%] (Tetranychus urticae; [2]): 21%
- Activity against Tetranychus urticae [%] (Tetranychus urticae; [3]): 30%
- Activity against Tetranychus urticae [%] (Tetranychus urticae; [4]): 16%
- Activity against Tetranychus urticae [%] (Tetranychus urticae; [5]): 0%
- Activity against Tetranychus urticae [%] (Tetranychus urticae; [6]): 20%
- Activity against Tetranychus urticae [%] (Tetranychus urticae; [7]): 10%
- Activity against Tetranychus urticae [%] (Tetranychus urticae; [8]): 7%
- Activity against Tetranychus urticae [%] (Tetranychus urticae; [9]): 19%
- Activity against Tetranychus urticae [%] (Tetranychus urticae; [10]): 0%
- Activity against Tetranychus urticae [%] (Tetranychus urticae; [11]): 6%
- Activity against adults [%] [1, 12]: 57%
- Activity against larvae [%] [1, 12]: 0%
- Activity against adults [%] [1, 3]: 41%
- Activity against larvae [%] [1, 3]: 0%
- Activity against adults [%] [1, 13]: 64%
- Activity against larvae [%] [1, 13]: 0%
- Activity against adults [%] [1, 5]: 41%
- Activity against larvae [%] [1, 5]: 0%
- Activity against adults [%] [1, 14]: 65%
- Activity against larvae [%] [1, 14]: 20%
- Activity against adults [%] [1, 7]: 40%
- Activity against larvae [%] [1, 7]: 0%
- Activity against adults [%] [1, 15]: 76%
- Activity against larvae [%] [1, 15]: 32%
- Activity against adults [%] [1, 9]: 47%
- Activity against larvae [%] [1, 9]: 0%
- Activity against adults [%] [1, 16]: 76%
- Activity against larvae [%] [1, 16]: 37%
- Activity against adults [%] [1, 11]: 40%
- Activity against larvae [%] [1, 11]: 0%
- Activity against Spodoptera frugiperda [%] (Spodoptera frugiperda; [4]): 0%
- Activity against Spodoptera frugiperda [%] (Spodoptera frugiperda; [5]): 0%
- Activity against Spodoptera frugiperda [%] (Spodoptera frugiperda; [6]): 7%
- Activity against Spodoptera frugiperda [%] (Spodoptera frugiperda; [7]): 29%
- Activity against Spodoptera frugiperda [%] (Spodoptera frugiperda; [8]): 53%
- Activity against Spodoptera frugiperda [%] (Spodoptera frugiperda; [9]): 61%
- Activity against Spodoptera frugiperda [%] (Spodoptera frugiperda; [10]): 84%
- Activity against Spodoptera frugiperda [%] (Spodoptera frugiperda; [11]): 77%
- Activity against Spodoptera frugiperda [%] (Spodoptera frugiperda; [17]): 80%
- Activity against Spodoptera frugiperda [%] (Spodoptera frugiperda; Days 35-42, azadirachtin 5, (I-1)+azadirachtin 50+5 g/ha): 81%

SMILES: O=[N+]([O-])NC1=NCCN1Cc1ccc(Cl)nc1 [imidacloprid]
- Activity against Tetranychus urticae [%] (Tetranychus urticae; [2]): 20%
- Activity against Tetranychus urticae [%] (Tetranychus urticae; [4]): 16%
- Activity against Tetranychus urticae [%] (Tetranychus urticae; [6]): 11%
- Activity against Tetranychus urticae [%] (Tetranychus urticae; [8]): 27%
- Activity against Tetranychus urticae [%] (Tetranychus urticae; [10]): 46%
- Activity against adults [%] [1, 12]: 91%
- Activity against larvae [%] [1, 12]: 0%
- Activity against adults [%] [1, 13]: 96%
- Activity against larvae [%] [1, 13]: 57%
- Activity against adults [%] [1, 14]: 98%
- Activity against larvae [%] [1, 14]: 70%
- Activity against adults [%] [1, 15]: 99%
- Activity against larvae [%] [1, 15]: 68%
- Activity against adults [%] [1, 16]: 91%
- Activity against larvae [%] [1, 16]: 94%
- Activity against Spodoptera frugiperda [%] (Spodoptera frugiperda; [4]): 24%
- Activity against Spodoptera frugiperda [%] (Spodoptera frugiperda; [6]): 57%
- Activity against Spodoptera frugiperda [%] (Spodoptera frugiperda; [8]): 14%
- Activity against Spodoptera frugiperda [%] (Spodoptera frugiperda; [10]): 12%
- Activity against Spodoptera frugiperda [%] (Spodoptera frugiperda; [17]): 10%
